*1 amine or outer side, *2 acyl side, *3 side chain or, on linkers, in order; H or OH if unused. Where a SMILES comes first, the peptide text is derived from it. Bridges are numbered along the chain shown (N, C = ends). [ ]: non-standard residue; d: D form. The star is where a group is joined. hPhe(3,5-F2-4-CF3) = N[C@@H](CCc1cc(F)c(C(F)(F)F)c(F)c1)C(=O)O; hPhe(3-Cl-4-CF3) = N[C@@H](CCc1ccc(C(F)(F)F)c(Cl)c1)C(=O)O; NPrPhe(4-CF3) = CCCN[C@@H](Cc1ccc(C(F)(F)F)cc1)C(=O)O; NMePhe(4-Me) = CN[C@@H](Cc1ccc(C)cc1)C(=O)O; X16 = O=C([C@@H](N[*:1])C1CC(F)(F)C1)[*:2]; X35 = CCCN([C@@H](CC(C)C)C(=O)[*:2])[*:1]; NMeGly(cPent) = CN[C@H](C(=O)O)C1CCCC1; NMeD = CN[C@@H](CC(=O)O)C(=O)O; NMeL = CN[C@@H](CC(C)C)C(=O)O; NMeAbu = CC[C@H](NC)C(=O)O; αMeS = C[C@](N)(CO)C(=O)O; Morpholide = C1CN(*)CCO1; NMeA = CN[C@@H](C)C(=O)O; NMeAib = CNC(C)(C)C(=O)O; Nle = CCCC[C@H](N)C(=O)O; Piperidide = C1CCN(*)CC1; Ac5c = NC1(C(=O)O)CCCC1; Aze = O=C(O)[C@@H]1CCN1; Ac4c = NC1(C(=O)O)CCC1; Sar = CNCC(=O)O; Allyl = C=CC*
How the values were obtained:
[1] = molecular target: GDP-bound NRAS wild-type protein (Homo sapiens, UniProt P01111); experiment: Binding to NRAS by surface plasmon resonance (SPR), KD and KD ratio to KRAS
Method in brief: (§1)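 Running buffer contained 10 µM GDP and 10 mM MgCl2 to keep RAS in the GDP state, with 4% DMSO at pH 7.4. Compounds were flowed at 100 µL/min in 75 s steps of rising concentration over captured biotin-Avi RAS at 30°C. Sensorgrams were fitted 1:1 for KD.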

[2] = molecular target: HRAS wild-type protein (Homo sapiens, UniProt P01112); experiment: Binding to HRAS by surface plasmon resonance (SPR), KD and KD ratio to KRAS
Method in brief: as §1

[3] = tested on: human lung cancer strain NCI-H441; type: cell-based
Method in brief: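 Step one: dispense the test compound in serial DMSO dilutions. Step three: add the reagent and measure […].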

[4] = ratio of KD for GDP-bound NRAS wild-type protein to KD for KRAS
[5] = ratio of KD for HRAS wild-type protein to KD for KRAS
[6] = ratio of KD value for GDP-bound NRAS wild-type protein to KD value for KRAS (SPR)
[7] = ratio of KD value for HRAS wild-type protein to KD value for KRAS (SPR)
[8] = ratio of the KD value with respect to GDP-bound NRAS wild-type protein to the KD value with respect to KRAS
[9] = ratio of the KD value with respect to HRAS wild-type protein to the KD value with respect to KRAS

Chain of HRAS wild-type protein (P01112 whole entry): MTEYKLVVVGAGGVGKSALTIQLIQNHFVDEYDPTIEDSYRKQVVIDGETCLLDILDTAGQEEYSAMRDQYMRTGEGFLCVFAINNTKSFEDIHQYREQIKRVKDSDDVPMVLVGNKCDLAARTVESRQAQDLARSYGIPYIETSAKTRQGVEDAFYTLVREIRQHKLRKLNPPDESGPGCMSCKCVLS
Chain of GDP-bound NRAS wild-type protein (P01111 whole entry): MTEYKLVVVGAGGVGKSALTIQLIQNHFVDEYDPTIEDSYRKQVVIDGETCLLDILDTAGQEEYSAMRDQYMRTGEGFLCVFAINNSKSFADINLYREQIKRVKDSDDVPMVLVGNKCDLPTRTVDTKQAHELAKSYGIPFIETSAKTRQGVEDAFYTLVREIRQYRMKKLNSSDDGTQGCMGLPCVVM

Row | SMILES | IC50 [3] [nM] | NRAS /KRAS [1, 4] | HRAS /KRAS [2, 5] | NRAS /KRAS [1, 6] | HRAS /KRAS [2, 7] | NRAS /KRAS [1, 8] | HRAS /KRAS [2, 9]
1 | CC[C@H](C)[C@@H]1NC(=O)[C@@H]2CCCc3ccc(cc3)C[C@@H](C(=O)N(C)CC(=O)N[C@@H](CCc3ccc(C(F)(F)F)c(OC)c3)C(=O)N3C[C@H](OC4CCC4)C[C@H]3C(=O)NC3(CC(C)(C)C3)C(=O)N(C)[C@@H](C3CCCC3)C(=O)N(C)[C@H](C(=O)N(C)CC)CC(=O)N2C)N2CC/C=C\C[C@@H](C2=O)N(C)C(=O)CN(C)C1=O [PP3085] | 6.3 | A (a compound having 10 or more and less than 20 is denoted as A) | B (a compound having 3 or more and less than 10 is denoted as B) | – | – | – | –
2 | CCCN1C(=O)CN(C)C(=O)CN(C)C(=O)[C@H]([C@@H](C)CC)NC(=O)[C@H](CC)N(C)C(=O)C[C@@H](C(=O)N2CCOCC2)N(C)C(=O)[C@H](C2CCCC2)N(C)C(=O)C2(CCCC2)NC(=O)[C@@H]2CCCN2C(=O)[C@H](CCc2ccc(C(F)(F)F)c(Cl)c2)NC(=O)CN(C)C(=O)[C@@H]1Cc1ccc(C(F)(F)F)cc1 [PP0190] ([NMeAbu]I[Sar][Sar][NPrPhe(4-CF3)][Sar][hPhe(3-Cl-4-CF3)]P[Ac5c][NMeGly(cPent)][NMeD]-Morpholide; lactam N-11) | 4.1 | B (a compound having 3 or more and less than 10 is denoted as B) | B (a compound having 3 or more and less than 10 is denoted as B) | – | – | – | –
3 | CCO[C@@H]1C[C@H]2C(=O)NC3(CC(C)(C)C3)C(=O)N(C)[C@@H](C3CCCC3)C(=O)N(C)[C@H](C(=O)N(C)C)CC(=O)N(C)[C@@H](CC)C(=O)N[C@@H]([C@@H](C)CC)C(=O)N(C)CC(=O)N(C)[C@H]3C/C=C\CCN(C3=O)[C@@H](Cc3ccc(C(F)(F)F)cc3)C(=O)N(C)CC(=O)N[C@@H](CCc3ccc(C(F)(F)F)c(OC)c3)C(=O)N2C1 [PP1559] | 1.8 | – | – | A (a compound having 10 or more and less than 20 is denoted as A) | A (a compound having 10 or more and less than 20 is denoted as A) | – | –
4 | C=CCOC[C@]1(C)NC(=O)[C@@H]2CCCN2C(=O)[C@H](CCc2cc(F)c(C(F)(F)F)c(F)c2)NC(=O)CN(C)C(=O)[C@H](Cc2ccc(C(F)(F)F)cc2)N(CCC)C(=O)CN(C)C(=O)CN(C)C(=O)[C@H]([C@@H](C)CC)NC(=O)[C@H](CC(C)C)N(C)C(=O)C[C@@H](C(=O)N(C)C)N(C)C(=O)[C@H](C2CCCC2)N(C)C1=O [PP0742] ([NMeL]I[Sar][Sar][NPrPhe(4-CF3)][Sar][hPhe(3,5-F2-4-CF3)]P[αMeS](Allyl)[NMeGly(cPent)][NMeD]-NMe2; lactam N-11) | 73.3 | – | – | – | – | B (a compound having 3 or more and less than 10 is denoted as B) | B (a compound having 3 or more and less than 10 is denoted as B)
5 | CCCN1C(=O)[C@@H]2CCN2C(=O)[C@H](C)N(C)C(=O)[C@H]([C@@H](C)CC)NC(=O)[C@H](CC(C)C)N(C)C(=O)C[C@@H](C(=O)N2CCOCC2)N(C)C(=O)[C@H](C2CCCC2)N(C)C(=O)C2(CCCC2)NC(=O)CN(C)C(=O)[C@H](CCc2ccc(C(F)(F)F)c(Cl)c2)NC(=O)CN(C)C(=O)[C@@H]1Cc1ccc(C(F)(F)F)cc1 [PP0287] ([NMeL]I[NMeA][Aze][NPrPhe(4-CF3)][Sar][hPhe(3-Cl-4-CF3)][Sar][Ac5c][NMeGly(cPent)][NMeD]-Morpholide; lactam N-11) | 14.5 | C (A compound having a KD ratio of 0.1 or more and less than 3 is denoted as C) | C (A compound having a KD ratio of 0.1 or more and less than 3 is denoted as C) | – | – | – | –
6 | CCO[C@@H]1C[C@H]2C(=O)NC3(CCC3)C(=O)N(C)[C@@H](C3CCCC3)C(=O)N(C)[C@H](C(=O)N(C)C)CC(=O)N(C)[C@@H](CC3CCCC3)C(=O)N[C@@H]([C@@H](C)CC)C(=O)N(C)CC(=O)N(C)[C@H]3C/C=C\CCN(C3=O)[C@@H](Cc3ccc(F)cc3)C(=O)N(C)CC(=O)N[C@@H](CCc3cc(F)c(C(F)(F)F)c(F)c3)C(=O)N2C1 [PP1531] | 13.9 | – | – | A (a compound having 10 or more and less than 20 is denoted as A) | B (a compound having 3 or more and less than 10 is denoted as B) | – | –
7 | CCCN1C(=O)CN(C)C(=O)[C@@H]2CCN2C(=O)[C@H](C2CC(F)(F)C2)NC(=O)[C@H](CC(C)C)N(C)C(=O)C[C@@H](C(=O)N2CCOCC2)N(C)C(=O)[C@H](C2CCCC2)N(C)C(=O)C2(CCCC2)NC(=O)[C@@H]2CCCN2C(=O)[C@H](CCc2cc(F)c(C(F)(F)F)c(F)c2)NC(=O)CN(C)C(=O)[C@@H]1Cc1ccc(C(F)(F)F)cc1 [PP0786] ([NMeL][X16][Aze][Sar][NPrPhe(4-CF3)][Sar][hPhe(3,5-F2-4-CF3)]P[Ac5c][NMeGly(cPent)][NMeD]-Morpholide; lactam N-11) | 44.8 | B (a compound having 3 or more and less than 10 is denoted as B) | B (a compound having 3 or more and less than 10 is denoted as B) | – | – | – | –
8 | CCCC[C@@H]1NC(=O)[C@H](CCc2ccc(C(F)(F)F)c(Cl)c2)NC(=O)CN(C)C(=O)[C@H](Cc2ccc(C)cc2)N(C)C(=O)[C@@H]2CCN2C(=O)[C@H](C)N(C)C(=O)[C@H]([C@@H](C)CC)NC(=O)[C@H](CC(C)C)N(C)C(=O)C[C@@H](C(=O)N2CCCCC2)N(C)C(=O)[C@H](CC(C)C)NC(=O)C(C)(C)N(C)C1=O [PP0047] ([NMeL]I[NMeA][Aze][NMePhe(4-Me)][Sar][hPhe(3-Cl-4-CF3)][Nle][NMeAib]L[NMeD]-Piperidide; lactam N-11) | 229 | C (A compound having a KD ratio of 0.1 or more and less than 3 is denoted as C) | C (A compound having a KD ratio of 0.1 or more and less than 3 is denoted as C) | – | – | – | –
9 | CCCN1C(=O)C[C@@H](C(=O)N2CCOCC2)N(C)C(=O)[C@H](C2CCCC2)N(C)C(=O)C2(CCC2)NC(=O)[C@@H]2CCCN2C(=O)[C@H](CCc2ccc(C(F)(F)F)c(Cl)c2)NC(=O)CN(C)C(=O)[C@H](Cc2ccc(C(F)(F)F)cc2)N(CCC)C(=O)CN(C)C(=O)CN(C)C(=O)[C@H](C(C)C)NC(=O)[C@@H]1CC(C)C [PP1815] ([X35]V[Sar][Sar][NPrPhe(4-CF3)][Sar][hPhe(3-Cl-4-CF3)]P[Ac4c][NMeGly(cPent)][NMeD]-Morpholide; lactam N-11) | 83 | – | – | B (a compound having 3 or more and less than 10 is denoted as B) | B (a compound having 3 or more and less than 10 is denoted as B) | – | –

Continued by falling IC50 [3], values first:

Row | IC50 [3] [nM] | SMILES | NRAS /KRAS [1, 4] | HRAS /KRAS [2, 5] | NRAS /KRAS [1, 6] | HRAS /KRAS [2, 7] | NRAS /KRAS [1, 8] | HRAS /KRAS [2, 9]
10 | 135 | CCO[C@@H]1C[C@H]2C(=O)NC3(CCC3)C(=O)N(C)[C@@H](C3CCCC3)C(=O)N(C)[C@H](C(=O)N(C)C)CC(=O)N(C)[C@@H](CC)C(=O)N[C@@H]([C@@H](C)CC)C(=O)N(C)CC(=O)N(C)[C@H]3CCCCCN(C3=O)[C@@H](Cc3ccc(C(F)(F)F)cc3)C(=O)N(C)CC(=O)N[C@@H](CCc3cc(Cl)c(C(F)(F)F)c(Cl)c3)C(=O)N2C1 [PP0989] | B (a compound having 3 or more and less than 10 is denoted as B) | B (a compound having 3 or more and less than 10 is denoted as B) | – | – | – | –
11 | 28.1 | CCO[C@@H]1C[C@H]2C(=O)NC3(CCC3)C(=O)N(C)[C@@H](CC(C)(C)C)C(=O)N(C)[C@H](C(=O)N3CCCC3)CC(=O)N(C)[C@@H](CC)C(=O)N[C@@H]([C@@H](C)CC)C(=O)N(C)CC(=O)N(C)[C@H]3C/C=C\CCN(C3=O)[C@@H](CC3CCCCC3)C(=O)N(C)CC(=O)N[C@@H](CCc3cc(F)c(C(F)(F)F)c(F)c3)C(=O)N2C1 [PP2772] | B (a compound having 3 or more and less than 10 is denoted as B) | B (a compound having 3 or more and less than 10 is denoted as B) | – | – | – | –
12 | 28.1 | CCO[C@@H]1C[C@H]2C(=O)NC3(CC(C)(C)C3)C(=O)N(C)[C@@H](C(CC)CC)C(=O)N(C)C(CC)CC(=O)N(C)[C@@H](CC)C(=O)N[C@@H]([C@@H](C)CC)C(=O)N(C)CC(=O)N(C)[C@H]3C/C=C\CCN(C3=O)[C@@H](Cc3ccc(C(F)(F)F)cc3)C(=O)N(C)CC(=O)N[C@@H](CCc3cc(F)c(C(F)(F)F)c(F)c3)C(=O)N2C1 (stereo partly drawn) [PP1622] | – | – | A (a compound having 10 or more and less than 20 is denoted as A) | A (a compound having 10 or more and less than 20 is denoted as A) | – | –
13 | 12.5 | CCO[C@@H]1C[C@H]2C(=O)NC3(CC(C)(C)C3)C(=O)N(C)[C@@H](C3CCCC3)C(=O)N(C)[C@H](C(=O)N(C)C)CC(=O)N(C)[C@@H](C(C)C)C(=O)N[C@@H]([C@@H](C)CC)C(=O)N(C)CC(=O)N(C)[C@H]3C/C=C\CCN(C3=O)[C@@H](Cc3ccc(C(F)(F)F)cc3)C(=O)N(C)CC(=O)N[C@@H](CCc3ccc(C(F)(F)F)c(OC)c3)C(=O)N2C1 [PP1979] | – | – | – | – | AA (a compound having 20 or more is denoted as AA) | A (a compound having 10 or more and less than 20 is denoted as A)
14 | 2 | CCCOC[C@H]1C(=O)N[C@@H]([C@@H](C)CC)C(=O)N(C)CC(=O)N(C)[C@H]2C/C=C\CCN(C2=O)[C@@H](Cc2ccc(C(F)(F)F)cc2)C(=O)N(C)CC(=O)N[C@@H](CCc2ccc(C(F)(F)F)c(OC)c2)C(=O)N2C[C@H](OCC)C[C@H]2C(=O)NC2(CC(C)(C)C2)C(=O)N(C)[C@@H](C2CCCC2)C(=O)N(C)[C@H](C(=O)N(C)C)CC(=O)N1C [PP1657] | – | – | A (a compound having 10 or more and less than 20 is denoted as A) | B (a compound having 3 or more and less than 10 is denoted as B) | – | –
